Results: patent US20230181537A1, “Translation Blockers Repurposed for COVID-19 Therapy” (priority 2020, published 2023)

How the values were obtained:
SARS-CoV-2 USA-WA1/2020 = format: cell-based; conditions: for viral infectivity (plaque assay): Vero-E6, MOI 0.0002, drug at 1 uM; for anti-viral activity against CoV2 infection of Vero-C6 cells: Vero-C6 (African green monkey kidney cells), dose response; for viral infectivity (number of plaques): Vero-E6, MOI 0.0001 or 0.0002, drugs added after infection at 1 uM and 10 uM
APP 5′UTR = experiment: High-throughput transfection-based APP 5′UTR luciferase reporter assay in SH-SY5Y cells; format: cell-based; conditions: high-throughput screen
APP mRNA = conditions: refs [25,27]; cited from earlier work
APP 5′UTR / IRP1 = conditions: refs [25,27]; cited from earlier work
SARS-CoV-2 = experiment: Anti-viral efficacy assay by immunocytochemical fluorescence in infected Vero E6 cells; format: cell-based
Description: 9A: Typical anti-viral efficacy assays conducted for the top COVID-19 inhibitors from a range of APP 5′UTR-directed inhibitors. In this exemplary case, Vero E6 cells were infected with SARS-CoV-2 at a multiplicity of infection of 0.1 and treated either with DMSO (negative control) or compound at the indicated concentrations. At 2 days post infection, cells were fixed and stained with an antibody against SARS-CoV-2 nucleocapsid protein. Cell nuclei were stained with DAPI. Infection rates quantified using Qupath software. 9B: Densitometric quantitation of JTR-009 dependent inhibition of Spike protein in COVID-19 infected Vero E6 cells (based on levels of Spike immunocytochemistry shown).
Initial virus assays were performed to experimentally test the benzimidazole APP 5′UTR directed translation blocker-9 (JTR-9) (FIG. 9). […] We tested JTR-009 for possible antiviral efficacy potentially via the related the CRRM motifs in the replicase open reading frame (ORF) related to the APP 5′UTR. We employed immunocytochemical fluorescence of Spike Protein as readout for viral infectivity. […] Therapeutic activity is being tested via the two CRRM RNA motifs in the virus replicase (FIG. 9).

| Structure (SMILES) | viral infectivity (plaque assay) (SARS-CoV-2 USA-WA1/2020) | inhibition of APP 5′UTR driven expression of a Luciferase reporter gene (APP 5′UTR) [%] | anti-viral activity against CoV2 infection of Vero-C6 cells (SARS-CoV-2 USA-WA1/2020) | viral infectivity (number of plaques) (SARS-CoV-2 USA-WA1/2020) | other results |
| --- | --- | --- | --- | --- | --- |
| CCC12C=CCN3CC[C@@]4(c5ccc(OC)cc5N(C)[C@H]4[C@@](O)(C(=O)OC)[C@@H]1OC(C)=O)[C@@H]32 (mixture of isomers) [B1, vindoline] | reduced viral infectivity | – | – | – | – |
| CCCSc1ccc2nc(NC(=O)OC)[nH]c2c1 [Albendazole] | – | 92.2 | dose responsive anti-viral activity | inhibited viral infectivity | – |
| COC(=O)Nc1nc2ccc(Sc3ccccc3)cc2[nH]1 [Fenbendazole] | – | 91.5 | – | – | – |
| Cc1ccc2[nH]c(-c3ccc(N)cc3)nc2c1 [JTR-009] | – | – | dose responsive anti-viral activity | inhibited viral infectivity | APP mRNA translation (APP mRNA): reduced APP mRNA translation; binding of the APP 5′UTR to its cognate RNA binding protein, IRP1 (APP 5′UTR / IRP1): prevented binding; inhibition of COVID-19 viral spike protein (densitometric quantitation) (SARS-CoV-2; FIGS. 9A-B): inhibited COVID-19 viral spike protein; COVID-19 infectivity (immunocytochemical fluorescence of Spike Protein as readout) (SARS-CoV-2; MOI 0.1, 2 days post infection): dose-dependently inhibited COVID-19 infectivity |
| Cc1c(OCC(F)(F)F)ccnc1C[S+]([O-])c1nc2ccccc2[nH]1 (stereo not shown) [Lansoprazole] | – | – | dose responsive anti-viral activity | inhibited viral infectivity | – |
| CN1CC[C@]2(C)c3cc(OC(=O)Nc4ccccc4)ccc3N(C)[C@H]12 [Posiphen, posiphen] | reduced viral infectivity | – | – | – | – |
| CC(O)(CCOP(=O)(O)OP(=O)(O)O)CC(=O)O (stereo not drawn) [Syn-516] | reduced viral infectivity | – | – | – | – |
| CCCOc1ccc2nc(NC(=O)OC)[nH]c2c1 [oxibendazole] | – | 85.9 | – | – | – |
